We go through 28 molecules from US11414424B2, “Cardiac sarcomere inhibitors” (Cytokinetics, Inc., priority 2018, dated 2022).

This test relates to bovine cardiac myofibrils. Kind of test: Myofibril assay: PK/LDH-coupled steady-state ATPase activity of skinned bovine cardiac myofibrils. Conditions: Ca2+ activating to 75% of maximal rate. The class given is biochemical. How it is done: To evaluate the effect of compounds on the ATPase activity of full-length cardiac myosin in the context of the native sarcomere, skinned myofibril assays were performed. Bovine cardiac myofibrils were obtained by homogenizing bovine cardiac left ventricular tissue in the presence of a detergent such as triton X-100. Such treatment removes membranes and a majority of the soluble cytoplasmic proteins but leaves intact the cardiac sarcomeric acto-myosin apparatus. Myofibril preparations retain the ability to hydrolyze ATP in a Ca^2+ regulated manner. ATPase activities of such myofibril preparations in the presence and absence of compounds were assayed at Ca^2+ concentrations activating to a defined fraction of the maximal rate (i.e., […], 75%). Small molecule agents were assessed for their ability to inhibit the steady-state ATPase activity of bovine cardiac myofibrils using pyruvate kinase and lactate dehydrogenase (PK/LDH)-coupled enzyme system. This assay regenerates myosin-produced ADP into ATP by oxidizing NADH, producing an absorbance change at 340 nm. Prior to testing small molecule agents, the bovine cardiac myofibrils were assessed for their calcium responsiveness and the calcium concentration that achieves either a 50% (pCa50) or 75% (pCa75) activation of the myofibril system was chosen as the final condition for assessing the inhibitory activity of the small molecule agents. All enzymatic activity was measured in a buffered solution containing 12 mM PIPES (piperazine-N,N′-bis(2-ethanesulfonic acid), 2 mM magnesium chloride at pH 6.8 (PM 12 buffer). Final assay conditions were 1 mg/mL of bovine cardiac myofibrils, 4 U/mL pyruvate kinase, 6 U/mL lactate dehydrogenase, 50 μM ATP, 0.1 mg/mL BSA (bovine serum albumin), 10 ppm antifoam, 1 mM DTT, 0.5 mM NADH, 1.5 mM PEP, 0.6 mM EGTA, and an amount of CaCl2 sufficient to achieve either 50% or 75% activation of the myofibril ATPase activity. Results for compounds tested are provided in Table A. Compounds tested were prepared in accordance with the synthetic procedures described herein.

Take `O=C1CN(c2ncc(Cl)cc2F)C(=O)C2(CC(F)C2)N1Cc1ccc(C(F)(F)F)cc1` (stereo not shown) [Compound 574, 8-(5-chloro-3-fluoropyridin-2-yl)-2-fluoro-5-(4-(trifluoromethyl)benzyl)-5,8-diazaspiro[3.5]nonane-6,9-dione]: the “CDMF75 IC15” value was 300 nM. Consider `O=C1C(C2CC(O)C2)N(Cc2ccc(F)cc2)C(=O)CN1c1ccc(Cl)cc1F` (single isomer, unassigned) [Compound 866C, 1-(4-chloro-2-fluorophenyl)-4-(4-fluorobenzyl)-3-(3-hydroxycyclobutyl)piperazine-2,5-dione], for which the “CDMF75 IC15” value amounted to 2300 nM. Next, `CC(=O)NCC1(C)C(=O)N(c2ncc(Cl)cc2F)CC(=O)N1Cc1ccc(C(F)(F)F)cc1` (single isomer, unassigned) [Compound 630A, N-((4-(5-chloro-3-fluoropyridin-2-yl)-2-methyl-3,6-dioxo-1-(4-(trifluoromethyl)benzyl)piperazin-2-yl)methyl)acetamide]: 9700 nM; `CNC(=O)N1CC2(C1)C(=O)N(C(C)CC#N)CC(=O)N2Cc1ccc(C(F)(F)F)cc1` (stereo not shown) [Compound 320, 8-(1-cyanopropan-2-yl)-N-methyl-6,9-dioxo-5-(4-(trifluoromethyl)benzyl)-2,5,8-triazaspiro[3.5]nonane-2-carboxamide]: 17800 nM. Then `N#Cc1ccc(N2CC(=O)N(Cc3ccc(C(F)(F)F)cc3)C3(CN(C=O)C3)C2=O)cc1` [Compound 190, 4-(2-formyl-6,9-dioxo-5-(4-(trifluoromethyl)benzyl)-2,5,8-triazaspiro[3.5]nonan-8-yl)benzonitrile], with 4000 nM; and `CNC(=O)[C@H]1C[C@]2(C1)C(=O)N(c1ccc(C#N)cc1F)CC(=O)N2Cc1ccc(C(F)(F)F)cc1` [Compound 486B], with 700 nM; and `CC(=O)NC[C@H]1C(=O)N(c2ncc(Cl)cc2F)CC(=O)N1Cc1ccc(C(F)(F)F)cc1` [Compound 625, (S)-N-((4-(5-chloro-3-fluoropyridin-2-yl)-3,6-dioxo-1-(4-(trifluoro-methyl)benzyl)piperazin-2-yl)methyl)acetamide], with 14500 nM. Then `CC(=O)N1CCC2(C1)C(=O)N(c1ccc(C#N)cc1F)CC(=O)N2Cc1ccc(Cl)cc1` (stereo not shown) [Compound 205, 4-(2-acetyl-6-(4-chlorobenzyl)-7,10-dioxo-2,6,9-triazaspiro[4.5]decan-9-yl)-3-fluorobenzonitrile], with 700 nM; and `N#Cc1ccc(N2CC(=O)N(Cc3ccc(C(F)(F)F)cc3)C3(CN(C(N)=O)C3)C2=O)cc1F` [Compound 198, 8-(4-cyano-3-fluorophenyl)-6,9-dioxo-5-(4-(trifluoromethyl)benzyl)-2,5,8-triazaspiro[3.5]nonane-2-carboxamide], with 500 nM. Consider `CC(C)N1CC(=O)N(Cc2ccc(Cl)cc2)C2(CN(c3ccc(F)cc3)C2)C1=O` [Compound 3, 5-(4-chlorobenzyl)-2-(4-fluorophenyl)-8-isopropyl-2,5,8-triazaspiro[3.5]-nonane-6,9-dione], for which the “CDMF75 IC15” value turned out to be 1700 nM. As to `CC(C)N1CC(=O)N(Cc2ccc(Cl)cc2)C2(CN(c3cncnc3)C2)C1=O` [Compound 25, 5-(4-chlorobenzyl)-8-isopropyl-2-(pyrimidin-5-yl)-2,5,8-triazaspiro-[3.5]nonane-6,9-dione], the “CDMF75 IC15” value is 8800 nM. On to `CC(C)N1CC(=O)N(Cc2ccc(Cl)cc2)C2(CN(c3ccc(F)cn3)C2)C1=O` [Compound 17, 5-(4-chlorobenzyl)-2-(5-fluoropyridin-2-yl)-8-isopropyl-2,5,8-triazaspiro[3.5]nonane-6,9-dione], for which the “CDMF75 IC15” value came out at 1700 nM. Then `CC(C)N1CC(=O)N(Cc2ccc(Cl)cc2)C2(CN(c3cncc(F)c3)C2)C1=O` [Compound 18, 5-(4-chlorobenzyl)-2-(5-fluoropyridin-3-yl)-8-isopropyl-2,5,8-triazaspiro[3.5]nonane-6,9-dione], with 3100 nM; and `C[C@@H](c1ccc(Cl)cc1)N1C(=O)CN(c2ncc(Cl)cc2F)C(=O)C12CN(C(=O)OCC(F)F)C2` [Compound 569, 2,2-difluoroethyl (S)-8-(5-chloro-3-fluoropyridin-2-yl)-5-(1-(4-chlorophenyl)-ethyl)-6,9-dioxo-2,5,8-triazaspiro[3.5]nonane-2-carboxylate], with 2600 nM. On to `NC(=O)C12CC(C3C(=O)N(c4ncc(Cl)cc4F)CC(=O)N3Cc3ccc(Cl)cc3)(C1)C2` (stereo not shown) [Compound 835, 3-(4-(5-chloro-3-fluoropyridin-2-yl)-1-(4-chlorobenzyl)-3,6-dioxopiperazin-2-yl)bicyclo[1.1.1]pentane-1-carboxamide], for which the “CDMF75 IC15” value is 1640 nM. As to `N#Cc1ccc(N2CC(=O)N(Cc3ccc(F)cc3)C(C3COC3)C2=O)c(F)c1` (stereo not shown) [Compound 706, 3-fluoro-4-(4-(4-fluoro-benzyl)-3-(oxetan-3-yl)-2,5-dioxopiperazin-1-yl)benzonitrile], the “CDMF75 IC15” value worked out at 4500 nM. Next, `CCNC(=O)N1CCC2(C1)C(=O)N(C(C)C)CC(=O)N2Cc1ccc(Cl)cc1` (stereo not shown) [Compound 119, 6-(4-chlorobenzyl)-N-ethyl-9-isopropyl-7,10-dioxo-2,6,9-triazaspiro[4.5]-decane-2-carboxamide]: 10800 nM; `CC(C)N1CC(=O)N(Cc2ccc(C(F)(F)F)cc2)C2(CN(c3ccccn3)C2)C1=O` [Compound 46, 8-isopropyl-2-(pyridin-2-yl)-5-(4-(trifluoromethyl)-benzyl)-2,5,8-triazaspiro-[3.5]nonane-6,9-dione]: 900 nM. Then `COC(=O)C12CC(C3C(=O)N(c4ncc(Cl)cc4F)CC(=O)N3Cc3ccc(C)cc3)(C1)C2` (stereo not shown) [Compound 781, methyl 3-(4-(5-chloro-3-fluoropyridin-2-yl)-1-(4-methylbenzyl)-3,6-dioxopiperazin-2-yl)bicyclo[1.1.1]pentane-1-carboxylate], with 4000 nM; and `Cc1cnc(N2CC(=O)N(Cc3ccc(C(F)(F)F)cc3)C(C3COC3)C2=O)c(F)c1` (single isomer, unassigned) [Compound 691A, 1-(3-fluoro-5-methylpyridin-2-yl)-3-(oxetan-3-yl)-4-(4-(trifluoromethyl)benzyl)piperazine-2,5-dione], with 12060 nM. Consider `N#Cc1ccc(N2CC(=O)N(Cc3ccc(C(F)(F)F)cc3)C3(CCN(C=O)C3)C2=O)c(F)c1` (stereo in doubt) [Compound 222, (S)-3-fluoro-4-(2-formyl-7,10-dioxo-6-(4-(trifluoromethyl)benzyl)-2,6,9-triazaspiro[4.5]decan-9-yl)benzonitrile], for which the “CDMF75 IC15” value came out at 700 nM. On to `Cc1nnc(N2CC3(C2)C(=O)N(C(C)C)CC(=O)N3Cc2ccc(Cl)cc2)o1` [Compound 45, 5-(4-chlorobenzyl)-8-isopropyl-2-(5-methyl-1,3,4-oxadiazol-2-yl)-2,5,8-triazaspiro[3.5]-nonane-6,9-dione], for which the “CDMF75 IC15” value came to 12800 nM.

For the molecule `CC1(CCC(N)=O)C(=O)N(c2ncc(Cl)cc2F)CC(=O)N1Cc1ccc(C(F)(F)F)cc1` (stereo not shown) [Compound 656, 3-(4-(5-chloro-3-fluoro-pyridin-2-yl)-2-methyl-3,6-dioxo-1-(4-(trifluoro-methyl)benzyl)piperazin-2-yl)propanamide], the “CDMF75 IC15” value came out at 9900 nM. Consider `O=C1C(C2COC2)N(Cc2ccc(Cl)cc2)C(=O)CN1c1ncc(Cl)cc1F` (stereo not shown) [Compound 633, 1-(5-chloro-3-fluoropyridin-2-yl)-4-(4-chlorobenzyl)-3-(oxetan-3-yl)piperazine-2,5-dione], for which the “CDMF75 IC15” value is 1300 nM. Then `Cc1ccnc(N2CC3(C2)C(=O)N(C(C)C)CC(=O)N3Cc2ccc(Cl)cc2)c1` [Compound 15, 5-(4-chlorobenzyl)-8-isopropyl-2-(4-methyl-pyridin-2-yl)-2,5,8-triazaspiro[3.5]nonane-6,9-dione], with 2700 nM; and `Cc1cc(Cl)cnc1N1CC(=O)N(Cc2ccc(F)cc2)C2(CN(c3ccc(F)cn3)C2)C1=O` [Compound 885, 8-(5-chloro-3-methyl-pyridin-2-yl)-5-(4-fluoro-benzyl)-2-(5-fluoropyridin-2-yl)-2,5,8-triazaspiro-[3.5]nonane-6,9-dione], with 500 nM; and `O=C1CN(c2ncc(Cl)cc2F)C(=O)C2(CCC2)N1Cc1ccc(C(F)(F)F)cc1` [Compound 548, 8-(5-chloro-3-fluoropyridin-2-yl)-5-(4-(trifluoromethyl)-benzyl)-5,8-diazaspiro-[3.5]nonane-6,9-dione], with 600 nM.

As to `C[C@@H](c1ccc(Cl)cc1)N1C(=O)CN(c2ncc(Cl)cc2F)C(=O)C12CN(C=O)C2` [Compound 568, (S)-8-(5-chloro-3-fluoro-pyridin-2-yl)-5-(1-(4-chlorophenyl)ethyl)-6,9-dioxo-2,5,8-triazaspiro-[3.5]nonane-2-carbaldehyde], the “CDMF75 IC15” value was 1200 nM.
